Laboratory results reported in the CheMixHub ionic liquid set.
± gives the uncertainty stated by the source.

Assay: xn = mol fraction of the nth substance listed
Conditions: 101 kPa

CCCCCCCCCCCC[N+](C)(C)Cc1ccccc1.[Cl-] + CC(C)[C@H](N)C(=O)O + O
electrical conductivity [S/m]
Conditions	293.15 K	298.15 K	303.15 K	308.15 K	313.15 K
x2 = 0.0008891, x1 = 0.0003	0.0839 ± 0.0053	0.0943 ± 0.0059	0.106 ± 0.0066	0.118 ± 0.0073	0.132 ± 0.0081
x2 = 0.0008891, x1 = 0.000319	0.087 ± 0.0055	0.0977 ± 0.0061	0.11 ± 0.0068	0.123 ± 0.0076	0.137 ± 0.0084
x2 = 0.0008892, x1 = 0.0001722	0.0627 ± 0.004	0.0699 ± 0.0044	0.0776 ± 0.0048	0.0856 ± 0.0053	0.0943 ± 0.0058
x2 = 0.0008892, x1 = 0.0001982	0.0677 ± 0.0043	0.0756 ± 0.0047	0.0841 ± 0.0052	0.0932 ± 0.0057	0.103 ± 0.0063
x2 = 0.0008892, x1 = 0.000222	0.0717 ± 0.0045	0.0802 ± 0.005	0.0894 ± 0.0055	0.0993 ± 0.0061	0.11 ± 0.0067
x2 = 0.0008892, x1 = 0.0002429	0.0751 ± 0.0047	0.0841 ± 0.0053	0.0939 ± 0.0058	0.104 ± 0.0064	0.116 ± 0.0071
x2 = 0.0008892, x1 = 0.0002636	0.0783 ± 0.0048	0.0878 ± 0.0054	0.0982 ± 0.006	0.109 ± 0.0067	0.122 ± 0.0074
x2 = 0.0008892, x1 = 0.0002822	0.0812 ± 0.0051	0.0912 ± 0.0057	0.102 ± 0.0063	0.114 ± 0.007	0.127 ± 0.0078
x2 = 0.0008893, x1 = 7.858e-05	0.0307 ± 0.0019	0.0345 ± 0.0022	0.0383 ± 0.0024	0.0422 ± 0.0026	0.046 ± 0.0029
x2 = 0.0008893, x1 = 9.958e-05	0.0385 ± 0.0024	0.0432 ± 0.0027	0.0479 ± 0.003	0.0528 ± 0.0033	0.0577 ± 0.0036
x2 = 0.0008893, x1 = 0.0001218	0.0467 ± 0.0029	0.0524 ± 0.0033	0.058 ± 0.0036	0.064 ± 0.004	0.0701 ± 0.0044
x2 = 0.0008893, x1 = 0.0001461	0.0553 ± 0.0035	0.0619 ± 0.0039	0.0686 ± 0.0043	0.0756 ± 0.0047	0.0827 ± 0.0051
x2 = 0.0008894, x1 = 5.704e-05	0.0227 ± 0.0014	0.0255 ± 0.0016	0.0283 ± 0.0018	0.0312 ± 0.002	0.034 ± 0.0021
x2 = 0.001757, x1 = 5.785e-05	0.0228 ± 0.0014	0.0256 ± 0.0016	0.0285 ± 0.0018	0.0315 ± 0.002	0.0345 ± 0.0022
x2 = 0.001757, x1 = 7.859e-05	0.0304 ± 0.0019	0.0341 ± 0.0021	0.0379 ± 0.0024	0.0418 ± 0.0027	0.0458 ± 0.0029
x2 = 0.001757, x1 = 0.0001001	0.0382 ± 0.0024	0.0428 ± 0.0027	0.0475 ± 0.003	0.0528 ± 0.0033	0.0574 ± 0.0036
x2 = 0.001757, x1 = 0.000121	0.0457 ± 0.0029	0.0512 ± 0.0032	0.0568 ± 0.0036	0.0628 ± 0.004	0.0689 ± 0.0044
x2 = 0.001757, x1 = 0.0001443	0.0537 ± 0.0034	0.0601 ± 0.0037	0.0666 ± 0.0041	0.0735 ± 0.0046	0.0809 ± 0.0051
x2 = 0.001757, x1 = 0.0001688	0.0607 ± 0.0038	0.0676 ± 0.0042	0.075 ± 0.0046	0.0828 ± 0.0051	0.0914 ± 0.0056
x2 = 0.001757, x1 = 0.0001945	0.0657 ± 0.0042	0.0733 ± 0.0046	0.0815 ± 0.005	0.0905 ± 0.0055	0.1 ± 0.0061
x2 = 0.001757, x1 = 0.0002205	0.07 ± 0.0045	0.0783 ± 0.0049	0.0872 ± 0.0054	0.0971 ± 0.0059	0.108 ± 0.0066
x2 = 0.001757, x1 = 0.0002437	0.0737 ± 0.0047	0.0826 ± 0.0052	0.0919 ± 0.0057	0.103 ± 0.0063	0.114 ± 0.007
x2 = 0.001757, x1 = 0.0002647	0.0773 ± 0.0047	0.0864 ± 0.0053	0.0965 ± 0.0059	0.108 ± 0.0066	0.12 ± 0.0074
x2 = 0.001757, x1 = 0.0002841	0.0803 ± 0.0051	0.09 ± 0.0056	0.101 ± 0.0062	0.112 ± 0.0069	0.126 ± 0.0077
x2 = 0.001757, x1 = 0.0003021	0.0834 ± 0.0053	0.0937 ± 0.0058	0.105 ± 0.0065	0.117 ± 0.0072	0.13 ± 0.008
x2 = 0.001757, x1 = 0.0003234	0.0872 ± 0.0055	0.0978 ± 0.0061	0.11 ± 0.0068	0.122 ± 0.0075	0.136 ± 0.0083
